Literature values in PMC10893631, “Receptor-based pharmacophore modeling, molecular docking, synthesis and biological evaluation of novel VEGFR-2, FGFR-1, and BRAF multi-kinase inhibitors” (BMC Chemistry, 2024).

Molecular target: T1, VEGFR-2 (Homo sapiens, UniProt P35968)
T1 construct: purchased BPS Biosciences 40325
Parameters: method as in PMID 17696416
Details: cited from earlier work

T1 sequence (P35968 20-1356): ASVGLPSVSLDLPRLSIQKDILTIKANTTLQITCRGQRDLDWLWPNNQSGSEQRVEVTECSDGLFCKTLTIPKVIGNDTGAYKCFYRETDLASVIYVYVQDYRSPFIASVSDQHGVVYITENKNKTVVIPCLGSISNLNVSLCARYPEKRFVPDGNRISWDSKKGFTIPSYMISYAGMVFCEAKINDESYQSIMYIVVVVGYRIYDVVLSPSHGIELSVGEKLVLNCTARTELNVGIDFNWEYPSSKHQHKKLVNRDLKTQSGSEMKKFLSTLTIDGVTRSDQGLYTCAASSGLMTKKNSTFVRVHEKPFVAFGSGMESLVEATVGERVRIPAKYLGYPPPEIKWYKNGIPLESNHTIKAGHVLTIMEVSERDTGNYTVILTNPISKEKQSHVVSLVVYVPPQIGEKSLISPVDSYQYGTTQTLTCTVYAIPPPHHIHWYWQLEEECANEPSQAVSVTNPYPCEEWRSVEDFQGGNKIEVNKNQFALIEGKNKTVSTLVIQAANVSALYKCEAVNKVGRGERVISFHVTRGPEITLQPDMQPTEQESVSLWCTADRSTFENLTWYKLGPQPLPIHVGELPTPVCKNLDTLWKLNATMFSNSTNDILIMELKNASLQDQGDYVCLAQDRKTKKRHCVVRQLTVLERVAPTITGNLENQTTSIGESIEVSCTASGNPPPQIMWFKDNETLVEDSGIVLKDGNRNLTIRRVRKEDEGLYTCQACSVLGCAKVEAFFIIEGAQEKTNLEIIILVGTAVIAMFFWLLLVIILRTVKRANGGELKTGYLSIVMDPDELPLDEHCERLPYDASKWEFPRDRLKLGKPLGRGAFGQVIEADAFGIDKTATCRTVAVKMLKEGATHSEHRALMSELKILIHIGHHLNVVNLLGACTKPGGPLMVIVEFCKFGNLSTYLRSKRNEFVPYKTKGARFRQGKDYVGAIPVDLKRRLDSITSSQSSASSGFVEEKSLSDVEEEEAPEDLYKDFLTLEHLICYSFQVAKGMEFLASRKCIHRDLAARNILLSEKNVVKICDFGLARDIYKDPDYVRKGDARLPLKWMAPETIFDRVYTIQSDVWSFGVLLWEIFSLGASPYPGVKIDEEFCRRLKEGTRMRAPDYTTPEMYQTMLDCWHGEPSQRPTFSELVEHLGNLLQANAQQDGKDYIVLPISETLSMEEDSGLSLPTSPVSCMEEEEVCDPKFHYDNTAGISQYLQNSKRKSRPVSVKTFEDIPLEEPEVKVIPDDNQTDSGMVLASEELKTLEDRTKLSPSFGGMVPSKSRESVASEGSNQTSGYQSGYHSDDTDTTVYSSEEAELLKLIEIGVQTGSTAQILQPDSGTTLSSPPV

## CNC(=O)c1cc(Oc2ccc3[nH]c(Nc4ccc(C(F)(F)F)c(Cl)c4)nc3c2)ccn1 [II]
  Ki: 8.7 nM
